Results taken from PMC6514978, “Synthesis, Antibacterial Activities, Mode of Action and Acute Toxicity Studies of New Oxazolidinone-Fluoroquinolone Hybrids” (Molecules, 2019).
Converted amounts (≈) assume the structure as drawn.

How the values were obtained:
[1] = Acute oral toxicity, limit test (OECD 425); format: in vivo; conditions: female, Kunming, mouse, in vivo, 2000 mg/kg·bw; mice, single oral dose, limit test 2000 mg/kg, 14 d observation
Procedure: (§1) Female Kunming mice (SPF grade, 18–22 g) were obtained from laboratory animal center of Lanzhou Veterinary Research Institute (Lanzhou, China). Mice were maintained under the standard conditions of 12 h light/dark cycle, room temperate (22 ± 3 °C), 50–60% relative humidity. They were fed normally with an unlimited supply of feed and water for seven days and deprived of food but not water for 4 h prior to the experiment. The toxicity test was supported by the Animal Ethics Committee of Lanzhou Institute of Husbandry and Pharmaceutical Sciences.
(§2) The acute toxicity of hybrids OBP-4 and OBP-5 was conducted by the limit test described in the OECD guideline 425 [39]. The mice were divided randomly into two groups, five animals in each group. One group of mice received a single oral dose of hybrids OBP-4 or OBP-5 at 2000 mg/kg·bw, and the other group of mice was given the equal volume of 0.5% CMC-Na solution (0.1 mL/10 g of body weight). Food was restored until 4 h after administration. The observation of each animal occurred according to the OECD guideline 425 [27], meaning continuously during the first 30 min, periodically during the next 24 h, and then daily thereafter until 14 d after dosing. The weight changes and mortality were calculated and recorded. The mice that survived were humanely killed at the end of the experiment.

Female Kunming mice = experiment: Acute oral toxicity, limit test (OECD 425); format: in vivo; conditions: single oral dose 2000 mg/kg, 14 d observation
Procedure: as §1, §2

[2] = tested on: E. faecalis (72) clinical isolates; experiment: Susceptibility of clinical isolates (MIC); format: cell-based, Enterococcus faecalis; conditions: for Cumulative % of strains inhibited at MIC / No. of strains inhibited at MIC: E. faecalis (72)
Procedure: Susceptibility testing of oxazolidinone-fluoroquinolone hybrids against various bacteria was performed by the broth microdilution method as outlined by the Clinical and Laboratory Standards Institute (CLSI). Three types of media, including cation-adjusted Mueller Hinton broth, Haemophilus Test Medium and cation-adjusted Mueller Hinton broth that contained 3%–5% lysed horse blood, were used to culture the corresponding bacteria. […] A final inoculum of 5 × 10^5 CFU/mL was used and plates were read after incubation for 16–24 h at 35 °C. […] Standard quality control strains (ATCC) were included throughout. Each determination was repeated in triplicate.

[3] = tested on: S. aureus (46) clinical isolates; experiment: Susceptibility of clinical isolates (MIC); format: cell-based, Staphylococcus aureus; conditions: for Cumulative % of strains inhibited at MIC / No. of strains inhibited at MIC: S. aureus (46)
How it was run: (§3)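 CLSI broth microdilution; media: CA-MHB, HTM, or CA-MHB + 3%–5% lysed horse blood by organism. Inoculum 5 × 10^5 CFU/mL, 35 °C, 16–24 h. QC strains (ATCC) run throughout, n = 3.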

[4] = tested on: H. parasuis (34) clinical isolates; experiment: Susceptibility of clinical isolates (MIC); format: cell-based, Haemophilus parasuis; conditions: for Cumulative % of strains inhibited at MIC / No. of strains inhibited at MIC: H. parasuis (34)
How it was run: as §3

Gram-positive isolates = experiment: MIC summary, clinical isolates; format: cell-based
Excerpt: (§4) 6 standard strains and 3 clinical isolates were used to the preliminary evaluation of in vitro antibacterial activities of oxazolidinone-fluoroquinolone hybrids. For the further evaluation of hybrids OBP-4 and OBP-5, 263 clinical isolates including S. aureus (46), S. haemolyticus(32), S. epidermidis (10), E. faecalis (72), E. faecium (47), S. pneumoniae (13), H. parasuis (34), S. suis (9), and 8 resistant strains including MRSA, MRSE, CIP-resistant S. aureus and S. haemolyticus, VAN and quinolone-resistant S. pneumoniae, LZD-resistant E. faecalis, LZD/VAN and quinolone-resistant E. faecium were collected and tested.
(§5) Susceptibility testing of oxazolidinone-fluoroquinolone hybrids against various bacteria was performed by the broth microdilution method as outlined by the Clinical and Laboratory Standards Institute (CLSI). Three types of media, including cation-adjusted Mueller Hinton broth, Haemophilus Test Medium and cation-adjusted Mueller Hinton broth that contained 3%–5% lysed horse blood, were used to culture the corresponding bacteria. All compounds including comparator drugs were dissolved in an appropriate solvent at a concentration of 2.048 mg/mL and then serially diluted two-fold to provide the required concentrations. A final inoculum of 5 × 10^5 CFU/mL was used and plates were read after incubation for 16–24 h at 35 °C. […] Standard quality control strains (ATCC) were included throughout. Each determination was repeated in triplicate.

[5] = tested on: S. haemolyticus (32) clinical isolates; experiment: Susceptibility of clinical isolates (MIC); format: cell-based, Staphylococcus haemolyticus
How it was run: as §3

[6] = tested on: S. agalactiae^R (13B317), levofloxacin-resistant S. agalactiae; experiment: MIC, broth microdilution (CLSI), clinical isolate; format: cell-based; conditions: Streptococcus agalactiae; levofloxacin-resistant S. agalactiae (13B317)
Excerpt: as §4, §5

MRSA (13B262) = experiment: MIC, broth microdilution (CLSI), clinical isolate; format: cell-based; conditions: Staphylococcus aureus
Excerpt: as §4, §5

[7] = tested on: S. pneumoniae (13) clinical isolates; experiment: Susceptibility of clinical isolates (MIC); format: cell-based, Streptococcus pneumoniae; conditions: for Cumulative % of strains inhibited at MIC / No. of strains inhibited at MIC: S. pneumoniae (13)
How it was run: as §3

[8] = tested on: S. suis (9) clinical isolates; experiment: Susceptibility of clinical isolates (MIC); format: cell-based, Streptococcus suis; conditions: for Cumulative % of strains inhibited at MIC / No. of strains inhibited at MIC: S. suis (9)
How it was run: as §3

Gram-positive bacteria = experiment: MIC summary, Gram-positive bacteria of the preliminary panel; format: cell-based; conditions: relative to LZD
Excerpt: as §4
Susceptibility testing of oxazolidinone-fluoroquinolone hybrids against various bacteria was performed by the broth microdilution method as outlined by the Clinical and Laboratory Standards Institute (CLSI). Three types of media, including cation-adjusted Mueller Hinton broth, Haemophilus Test Medium and cation-adjusted Mueller Hinton broth that contained 3%–5% lysed horse blood, were used to culture the corresponding bacteria. All compounds including comparator drugs were dissolved in an appropriate solvent at a concentration of 2.048 mg/mL and then serially diluted two-fold to provide the required concentrations. A final inoculum of 5 × 10^5 CFU/mL was used and plates were read after incubation for 16–24 h at 35 °C. […]

[9] = Enterococcus faecalis, E. faecalis, 72 clinical isolates
[10] = S. haemolyticus (32), MIC 0.125 µg/mL

CC1Sc2c(C(=O)O)c(=O)c3cc(F)c(N4CCC(O)(COc5ccc(N6C[C@H](CO)OC6=O)cc5F)CC4)cc3n21 (stereo partly drawn) [OBP-5]
LD50 at 14 d [1]: > 2000 mg/kg
death and toxicity signs (Female Kunming mice): No death and any toxicity signs were observed
Cumulative % of strains inhibited at MIC ([2]; MIC 0.125 µg/mL): 91.7%
No. of strains inhibited at MIC ([2]; MIC 0.125 µg/mL): 49
Cumulative % of strains inhibited at MIC ([2]; MIC 0.5 µg/mL): 100.0%
No. of strains inhibited at MIC ([2]; MIC 0.5 µg/mL): 1
Cumulative % of strains inhibited at MIC ([2]; MIC […]): 98.6%
No. of strains inhibited at MIC ([2]; MIC […]): 5
Cumulative % of strains inhibited at MIC ([2]; MIC ≤[…]): 23.6%
No. of strains inhibited at MIC ([2]; MIC ≤[…]): 17
fold higher activity than comparator agents ([2]; E. faecalis clinical isolates): 2- to 16 fold
MIC Range ([2]; E. faecalis, 72 clinical isolates): ≤0.0625 to 0.5 µg/mL
MIC50 [2, 9]: 0.125 µg/mL (≈ 0.207 µM)
MIC90 [2, 9]: 0.125 µg/mL (≈ 0.207 µM)
Cumulative % of strains inhibited at MIC ([3]; MIC 0.125 µg/mL): 97.8%
No. of strains inhibited at MIC ([3]; MIC 0.125 µg/mL): 3
Cumulative % of strains inhibited at MIC ([3]; MIC […]): 100.0%
No. of strains inhibited at MIC ([3]; MIC […]): 1
Cumulative % of strains inhibited at MIC ([3]; MIC ≤[…]): 91.3%
No. of strains inhibited at MIC ([3]; MIC ≤[…]): 42
MIC50 ([3]; Staphylococcus aureus, S. aureus, 46 clinical isolates, read-out: MIC50): ≤ 0.0625 µg/mL
MIC90 ([3]; Staphylococcus aureus, S. aureus, 46 clinical isolates, read-out: MIC90): ≤ 0.0625 µg/mL
MIC ([3]; Staphylococcus aureus, S. aureus, 46 clinical isolates, read-out: MIC Range): 0.0625 to 0.25 µg/mL (≈ 0.104 to 0.414 µM)
MIC50 ([4]; Glaesserella parasuis, H. parasuis, 34 clinical isolates, read-out: MIC50): 0.5 µg/mL (≈ 0.828 µM)
MIC90 ([4]; Glaesserella parasuis, H. parasuis, 34 clinical isolates, read-out: MIC90): 2 µg/mL (≈ 3.31 µM)
Cumulative % of strains inhibited at MIC ([4]; MIC 0.125 µg/mL): 17.6%
No. of strains inhibited at MIC ([4]; MIC 0.125 µg/mL): 1
Cumulative % of strains inhibited at MIC ([4]; MIC 0.5 µg/mL): 47.1%
No. of strains inhibited at MIC ([4]; MIC 0.5 µg/mL): 6
Cumulative % of strains inhibited at MIC ([4]; MIC 1 µg/mL): 67.6%
No. of strains inhibited at MIC ([4]; MIC 1 µg/mL): 7
Cumulative % of strains inhibited at MIC ([4]; MIC 2 µg/mL): 97.1%
No. of strains inhibited at MIC ([4]; MIC 2 µg/mL): 10
Cumulative % of strains inhibited at MIC ([4]; MIC 4 µg/mL): 100.0%
No. of strains inhibited at MIC ([4]; MIC 4 µg/mL): 1
Cumulative % of strains inhibited at MIC ([4]; MIC […]): 29.4%
No. of strains inhibited at MIC ([4]; MIC […]): 4
Cumulative % of strains inhibited at MIC ([4]; MIC ≤[…]): 14.7%
No. of strains inhibited at MIC ([4]; MIC ≤[…]): 5
MIC Range ([4]; H. parasuis, 34 clinical isolates): ≤0.0625 to 4 µg/mL
MIC90 (Gram-positive isolates; Gram-positive clinical isolates, read-out: MIC90 values for Gram-positive isolates (span over species)): 0.0625 to 0.25 µg/mL (≈ 0.104 to 0.414 µM)
fold greater activity than OBP-4, overall (Gram-positive isolates; tested clinical isolates): 2 fold
Cumulative % of strains inhibited at MIC [5, 10]: 100.0%
No. of strains inhibited at MIC [5, 10]: 2
No. of strains inhibited at MIC ([5]; S. haemolyticus (32), MIC ≤[…]): 30
MIC50 ([5]; Staphylococcus haemolyticus, S. haemolyticus, 32 clinical isolates, read-out: MIC50): ≤ 0.0625 µg/mL
MIC90 ([5]; Staphylococcus haemolyticus, S. haemolyticus, 32 clinical isolates, read-out: MIC90): ≤ 0.0625 µg/mL
MIC ([5]; Staphylococcus haemolyticus, S. haemolyticus, 32 clinical isolates, read-out: MIC Range): 0.0625 to 0.125 µg/mL (≈ 0.104 to 0.207 µM)
MIC [6]: 0.031 µg/mL (≈ 0.0514 µM)
MIC (MRSA (13B262)): 0.5 µg/mL (≈ 0.828 µM)
Cumulative % of strains inhibited at MIC ([7]; MIC 0.125 µg/mL): 84.6%
No. of strains inhibited at MIC ([7]; MIC 0.125 µg/mL): 4
Cumulative % of strains inhibited at MIC ([7]; MIC […]): 100.0%
No. of strains inhibited at MIC ([7]; MIC […]): 2
Cumulative % of strains inhibited at MIC ([7]; MIC ≤[…]): 53.8%
No. of strains inhibited at MIC ([7]; MIC ≤[…]): 7
MIC Range ([7]; S. pneumoniae, 13 clinical isolates): ≤0.0625 to 0.25 µg/mL
MIC50 ([7]; Streptococcus pneumoniae, S. pneumoniae, 13 clinical isolates, read-out: MIC50): ≤ 0.0625 µg/mL
MIC90 ([7]; Streptococcus pneumoniae, S. pneumoniae, 13 clinical isolates, read-out: MIC90): 0.25 µg/mL (≈ 0.414 µM)
Cumulative % of strains inhibited at MIC ([8]; MIC 0.125 µg/mL): 88.9%
No. of strains inhibited at MIC ([8]; MIC 0.125 µg/mL): 3
Cumulative % of strains inhibited at MIC ([8]; MIC 2 µg/mL): 100%
No. of strains inhibited at MIC ([8]; MIC 2 µg/mL): 1
Cumulative % of strains inhibited at MIC ([8]; MIC ≤[…]): 55.6%
No. of strains inhibited at MIC ([8]; MIC ≤[…]): 5
MIC50 ([8]; Streptococcus suis, S. suis, 9 clinical isolates, read-out: MIC50): ≤ 0.0625 µg/mL
MIC90 ([8]; Streptococcus suis, S. suis, 9 clinical isolates, read-out: MIC90): 0.125 µg/mL (≈ 0.207 µM)
MIC ([8]; Streptococcus suis, S. suis, 9 clinical isolates, read-out: MIC Range): 0.0625 to 2 µg/mL (≈ 0.104 to 3.31 µM)
antibacterial efficacy against Gram-positive bacteria, times stronger than LZD (Gram-positive bacteria): 4–16 times
